Test results taken from US20240336566A1, “CRYSTALLINE FORMS OF A COMPOUND FOR THE TARGETED DEGRADATION OF THE ANDROGEN RECEPTOR” (Arvinas Operations, Inc., priority 2023, published 2024).

Experiments:
Assay type in all cases: physicochemical
[1] = Co-crystal screen: XRPD post temperature cycling and post storage at 40° C./75% RH;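 as to XRPD results, primary co-crystal screen post temperature cycling: value is the Compound A free base XRPD pattern number and 9 means a potential new one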; conditions: Compound A + 1.05 eq. co-former (= label)
[2] = Primary crystallization screen: XRPD before and after drying at 40° C.; conditions: dried at 40° C. for approximately 18 h
Procedure: • 34×40 mg of Compound A was weighed into vials before the selected solvents were added to prepare slurries, where possible. See Table 29 for a list of solvent systems used and the volume of solvent used. • Stirrer bars were added to the vials, before the vials were sealed and temperature cycled with stirring between 5° C. and 40° C. The heating rate was 0.1° C./min and the samples were held at 5° C. and 40° C. for 2 hours. • After temperature cycling for 4 days, observations were made (see Table 29). Slurries were centrifuge filtered and the solids were analyzed by XRPD • The solids were dried at 40° C. for approximately 18 h before being re-analyzed by XRPD. • Saturated solutions were then split into 3 vials for the following experiments • Evaporation at ambient temperature • Cooling (5° C.). • Where no solids were obtained after 72 hours, the samples were moved to the freezer at −20° C. for further cooling. • Where no solids were obtained from further cooling, the samples were allowed to evaporate at ambient temperature. • Anti-solvent addition at ambient temperature. • Where no solids were obtained after 72 hours the samples were moved to the freezer at −20° C. to encourage crystallization. • Where no solids were obtained from cooling, the samples were allowed to evaporate at ambient temperature.

[3] = Primary salt screen: XRPD post temperature cycling/evaporation, post drying and post storage at 40° C./75% RH; conditions: Compound A + 1.05 eq. counterion (= label); for XRPD results post 40° C./75% RH: stored ca. 20 hours
Procedure: • 30 mg samples of Compound A were weighed out into 2 mL screw cap sample vials for 96 experiments. To these, 200 μL of the appropriate solvent system was added to dissolve the material or form a slurry. See Table 16 for the solvent systems selected for the primary salt screen.
• 1.05 eq. of solid counterions were weighed into six separate vials each and 1 molar stock solutions were prepared for liquid counterions in 5 mL of THF. See Table 17 for selected counterions and mass/volume needed for 1.05 eq. additions. • 100 μL of the appropriate solvent was added to the solid counterions.
The solution/slurry of counterion was added to the solution/slurry of the free base material.
• The samples were placed in an incubator shaker to temperature cycle between ambient and 40° C. over 4 hour cycles. • After ca. 72 hours of temperature cycling, observations were noted, see Table 19.
• Where slurries were obtained, the solids were isolated via centrifugation. Solids and gels were analyzed by XRPD.
Any samples that were clear solutions after temperature cycling were left to evaporate at ambient conditions. See Table 20 for observations made after evaporation. Solids obtained through evaporation were analyzed by XRPD.
• The samples obtained from temperature cycling were dried under vacuum at 40° C. for ca. 20 hours while the samples obtained from evaporation were dried under vacuum at 40° C. for ca. 4 hours. […]

Structure (SMILES)	XRPD results, primary co-crystal screen post storage at 40° C./75% RH ([1]; 1,4-Dioxane)	XRPD results, primary co-crystal screen post temperature cycling ([1]; 1,4-Dioxane)	XRPD results, primary co-crystal screen post storage at 40° C./75% RH ([1]; DCM:Methanol (50:50 % v/v))	XRPD results, primary co-crystal screen post temperature cycling ([1]; DCM:Methanol (50:50 % v/v))	XRPD results, primary co-crystal screen post storage at 40° C./75% RH ([1]; THF)	XRPD results, primary co-crystal screen post temperature cycling ([1]; THF)	also measured
NC(N)=O [Urea]	4	9	2	2	1	1	–
NC(=O)c1cccnc1 [Nicotinamide]	4	4	2	2	1	1	XRPD results, primary co-crystal screen post storage at 40° C./75% RH ([1]; DMSO:Water (50:50 % v/v)): 2; XRPD results, primary co-crystal screen post temperature cycling ([1]; DMSO:Water (50:50 % v/v)): 2
COC(=O)c1ccc(O)cc1 [Methylparaben]	–	–	1	1	1	1	–
COc1cc(O[C@H]2C(C)(C)[C@H](NC(=O)c3ccc(N4CCC(CN5CCN(c6ccc(C(=O)N[C@H]7CCC(=O)NC7=O)c(F)c6)CC5)CC4)cc3)C2(C)C)ccc1C#N [free base Pattern 5]	–	–	–	–	–	–	XRPD form upon drying [2]: converted to Pattern 8
N[C@@H](Cc1ccccc1)C(=O)O [L-Phenylalanine]	4	9	–	–	–	–	–
N[C@@H](Cc1c[nH]c2ccccc12)C(=O)O [L-Tryptophan]	–	–	–	2	–	–	–
O=P(O)(O)O [Phosphoric acid]	–	–	–	–	–	–	XRPD results post temperature cycling and evaporation ([3]; 1,4-Dioxane): A t; XRPD results post drying ([3]; 1,4-Dioxane, dried under vacuum at 40° C.): A t; XRPD results post 40° C./75% RH ([3]; 1,4-Dioxane): A t; XRPD results post temperature cycling and evaporation ([3]; DCM): S t *; XRPD results post temperature cycling and evaporation ([3]; DCM:Methanol (50:50 % v/v)): S t *; XRPD results post 40° C./75% RH ([3]; DCM): A t h; XRPD results post temperature cycling and evaporation ([3]; THF): S t; XRPD results post temperature cycling and evaporation ([3]; THF:Water (98:2 % v/v)): S t
CC(=O)O [Acetic acid]	–	–	–	–	–	–	XRPD results post 40° C./75% RH ([3]; DMSO:Water (50:50 % v/v)): A t h
N[C@@H](Cc1ccc(O)cc1)C(=O)O [L-Tyrosine]	4	9	2	2	–	–	–
